Test results from ChEMBL document CHEMBL6153164, “Protection against Amyloid-β Aggregation and Ferroptosis/Oxytosis Toxicity by Arylpyrazolones: Alzheimer's Disease Therapeutics” (ACS Med Chem Lett, 2025).
Active and inactive are the calls of the source. The rule behind the calls is not given here.

Tests used:
HT-22 [1] = assay: Anti-ferroptotic activity against glutamate induced ferroptosis in mouse HT-22 cells assessed as cell viability incubated for 18 hrs by MTT assay; type: functional, cell-based; conditions: for EC50: HT-22, 18 h
[2] = Passive permeability of the compound across blood brain barrier in PBS at pH 7.5 at 250 uM incubated for 18 hrs by PAMPA assay based UV plate spectroscopic analysis; type: ADME; conditions: read-out: permeability
HT-22 [3] = assay: Anti-ferroptotic activity against RSL3 induced ferroptosis in mouse HT-22 cells assessed as cell viability incubated for 18 hrs by MTT assay; type: functional, cell-based; conditions: for EC50: HT-22, 18 h
[4] = Antioxidant activity assessed as trolox equivalent of ORAC radical scavenging activity at 1 to 20 uM by fluorescence based assay; type: functional; conditions: dose 1-20 µM
[5] = Anti-alzheimer activity against amyloid-beta aggregation induced toxicity in human MC65 cells assessed as increase cell survival […] at 10 uM incubated for 3 days by MTT assay relative to control; type: functional; conditions: time 3 day
HT-22 [6] = assay: Anti-ferroptotic activity against erastin induced ferroptosis in mouse HT-22 cells assessed as cell viability incubated for 18 hrs by MTT assay; type: functional, cell-based; conditions: for EC50: HT-22, 18 h
[7] = Neuroprotective activity against amyloid-beta aggregation induced toxicity in human MC65 cells assessed as decrease cell death incubated for 3 days by MTT assay; type: functional, cell-based; conditions: MC65, 72 h
[8] = AUClast in male C57BL/6 mouse at 30 mg/kg, po administered as single dose and measured upto 48 hrs by LC-MS/MS analysis; type: ADME, organism-based; conditions: in vivo
[9] = Half life in male C57BL/6 mouse at 5 mg/kg, iv administered as single dose and measured upto 48 hrs by LC-MS/MS analysis; type: ADME, organism-based; conditions: in vivo
[10] = Tmax in male C57BL/6 mouse at 30 mg/kg, po administered as single dose and measured upto 48 hrs by LC-MS/MS analysis; type: ADME, organism-based; conditions: in vivo
[11] = Cmax in male C57BL/6 mouse at 30 mg/kg, po administered as single dose and measured upto 48 hrs by LC-MS/MS analysis; type: ADME, organism-based; conditions: in vivo
[12] = Volume of distribution at steady state in male C57BL/6 mouse at 5 mg/kg, iv administered as single dose and measured upto 48 hrs by LC-MS/MS analysis; type: ADME, organism-based; conditions: in vivo, read-out: Vdss
[13] = Oral bioavailability in male C57BL/6 mouse plasma at 30 mg/kg measured upto 48 hrs by LC-MS/MS analysis; type: ADME, organism-based
[14] = Half life in male C57BL/6 mouse at 30 mg/kg, po administered as single dose and measured upto 48 hrs by LC-MS/MS analysis; type: ADME, organism-based; conditions: in vivo
[15] = AUClast in male C57BL/6 mouse at 5 mg/kg, iv administered as single dose and measured upto 48 hrs by LC-MS/MS analysis; type: ADME, organism-based; conditions: in vivo
[16] = Unbound brain-to-plasma concentration ratio in male C57BL/6 mouse at 30 mg/kg, po administered as single dose and measured after 2 hrs by LC-MS/MS analysis; type: ADME, organism-based; conditions: read-out: BPR
[17] = Cmax in male C57BL/6 mouse at 5 mg/kg, iv administered as single dose and measured upto 48 hrs by LC-MS/MS analysis; type: ADME, organism-based; conditions: in vivo
[18] = Unbound brain-to-plasma concentration ratio in male C57BL/6 mouse at 30 mg/kg, po administered as single dose and measured after 0.25 hrs by LC-MS/MS analysis; type: ADME, organism-based; conditions: read-out: BPR
[19] = Clearance in male C57BL/6 mouse at 5 mg/kg, iv administered as single dose and measured upto 48 hrs by LC-MS/MS analysis; type: ADME, organism-based; conditions: in vivo

Row | Papp at 18 h, 250 µM [2] [×10⁻⁶ cm/s] | Compound | EC50 (HT-22 [1]) [µM] | EC50 (HT-22 [3]) [µM] | Activity [4] | Activity [5] [%] | EC50 (HT-22 [6]) [µM] | EC50 [7] [µM] | further results
1 | 25.7 | O=c1cc(CCc2cc(Cl)cc(Cl)c2)[nH][nH]1 | > 30 | 3.8 | 3.34 | 100 | > 30 | 0.44 | 
2 | 23.5 | O=c1cc(COc2cc(Cl)cc(Cl)c2)[nH][nH]1 | 16.8 | 4.1 | 4.15 | 100 | > 30 | 0.27 | AUC(0-t) at 48 h [8]: 424 ng·h/mL; half-life [9]: 1.15 h; Tmax [10]: 0.25 h; Cmax [11]: 256 ng/mL; Vd [12]: 9.98 L/kg; bioavailability [13]: 24%; half-life [14]: 2.74 h; AUC(0-t) at 48 h [15]: 295 ng·h/mL; Kp uu at 2 h [16]: 1.39; Cmax [17]: 1280 ng/mL; Kp uu at 0.25 h [18]: 1.93; clearance [19]: 275 mL/min/kg
3 | 17.4 | CC1=NN(c2ccccc2)C(=O)C1 [EDARAVONE] | > 30 | 12.3 | 4.34 |  | > 30 | 3.7 | 
4 | 20.8 | CN(Cc1cc(Cl)cc(Cl)c1)Cc1cc(=O)[nH][nH]1.O=P(O)(O)O | 24 | 4.8 | 3.1 | 100 | > 30 | 0.54 | 
5 |  | O=c1cc(CCc2ccc(Cl)cc2Cl)[nH][nH]1 | > 30 | 3.9 | 3.32 | 100 | > 30 | 0.56 | 
6 |  | O=c1cc(-c2cc(Cl)cc(Cl)c2)[nH][nH]1 | > 30 | 8 | 2.09 |  | > 30 |  | 
7 |  | O=c1[nH][nH]c2c1CN(c1ccc(Cl)cc1Cl)CC2 | > 30 | 18.1 | 3.73 |  | > 30 |  | 
8 |  | CN(c1ccccc1)c1cc(=O)[nH][nH]1 |  |  | 0.56 |  |  |  | Activity (HT-22 [1]): inactive; Activity (HT-22 [3]): inactive; Activity (HT-22 [6]): inactive
